Laboratory results taken from patent US20240391955A1, “PEPTIDE HAVING ANTI-AGING ACTIVITY, AND USE THEREOF” (CAREGEN CO., LTD., priority 2021, published 2024).

Legend:
[1] = tested on: MMP-2; assay: MMP-2 activity after UVA irradiation, gelatin zymography; type: cell-based, mouse; settings: NIH3T3 cells, culture medium, peptide 10, 50, 100 μM, 6 J/cm^2 UVA, FIG. 6
[2] = tested on: collagen; assay: Collagen protein secretion by ELISA in NIH3T3 fibroblasts; type: cell-based, mouse; settings: peptide 10, 50, 100 μM, 72 hours, FIG. 2
Method: (§1) First, NIH3T3 cells and HaCaT cells (human keratinocyte cell line) were seeded in a 24-well plate at a cell density of 1×10^4 cell/well, and then the cells were cultured in DMEM medium containing 10% fetal bovine serum (FBS) for 24 hours. The cultured cells were washed once with serum free DMEM medium, and the peptide of the present invention was mixed in 2 mL of the serum free DMEM medium at each of concentrations of 10 μM, 50 μM, 100 μM, and 5 ng/ml, and dispensed into three wells by 500 μL per condition. NIH3T3 cells were treated with 5 ng/ml of TGF-β1 instead of the above peptide as a positive control (PC). HaCaT cells were treated with 10 nM of IGF-1 instead of the above peptide as a positive control (PC). The cells were cultured in a CO2 incubator at 37° C. for 72 hours.
(§2) The medium of the cultured NIH3T3 and HaCaT cells was centrifuged to settle a suspended matter, a supernatant was transferred to an e-tube, and then each of ELISA (abcam, Cat No.: ab210579, UK) and hyaluronic acid (HA) ELISA (ECHELON biosciences, Cat No.: K-1200, USA) was performed using the same.

[3] = tested on: elastin; assay: Elastin mRNA level after UVA irradiation, RT-PCR; type: cell-based, mouse; settings: NIH3T3 cells, peptide 10, 50, 100 μM, 6 J/cm^2 UVA, FIG. 5
Method: (§3) First, NIH3T3 cells were seeded in a 6-well plate at a cell density of 5×10^5 cell/well, and then the cells were cultured in DMEM medium containing 10% fetal bovine serum (FBS) for 24 hours. The cultured cells were washed once with serum free DMEM medium, and then the peptide of the present invention was mixed in 1 mL of the serum free DMEM medium at each of concentrations of 10, 50, and 100 μM, and dispensed into the cells. A positive control (PC) was treated with 50 μM of Quercetin instead of the above peptide. The cells were cultured in a CO2 incubator at 37° C. for 6 hours.
(§4) The medium of the cultured cells was transferred to a tube (e-tube), 1 ml of PBS was added, and irradiation was performed with 6 J/cm^2 of UVA using a UV irradiator (VILBER LOURMAT, Cat No.: 3102-BSU, France). After removing PBS, 900 μL of the medium transferred to the tube was dispensed, and culture was performed in a CO2 incubator at 37° C. for 6 hours. The cultured cells were washed twice with PBS, and then RNA was extracted from the cells using easy blue (iNtRON, Cat. No.: 17061, Korea). The amount of RNA extracted was quantified, 1,000 ng of RNA was added per tube, and RT reaction was performed using a kit (enzynomics, Cat. No.: RT200, Korea) Thereafter, RT-PCR was performed using a PCR kit (enzynomics, Cat. No.: R581T, Korea). […]

[4] = tested on: fibronectin gene; assay: Fibronectin gene expression by RT-PCR in fibroblasts; type: cell-based, mouse; settings: NIH3T3 cells, peptide 10, 50, 100 μM, 24 hours, FIG. 1
Method: (§5) First, NIH3T3 cells (mouse fibroblast cell line) were seeded in a 6-well plate at a cell density of 3×10^5 cell/well, and then the cells were cultured in DMEM medium containing 10% fetal bovine serum (FBS) for 24 hours. The cultured cells were washed once with serum free DMEM medium, and the peptide of the present invention was mixed in 1 mL of the serum free DMEM medium at each of concentrations of 10, 50, and 100 μM, and dispensed into the cells. A positive control (PC) was treated with 5 ng/ml of TGF-β1 instead of the above peptide. The cells were cultured in a CO2 incubator at 37° C. for 24 hours.
(§6) The cultured cells were washed twice with PBS, and RNA was extracted from the cells using easy blue (iNtRON, Cat. No.: 17061, Korea). The amount of RNA extracted was quantified, 1,000 ng of RNA was added per tube, and RT reaction was performed using a kit (enzynomics, Cat. No.: […], Korea). RT-PCR was performed using a PCR kit (enzynomics, Cat. No.: […], Korea). The sequences of the primers of fibronectin and elastin used in RT-PCR and the sequence of the primer of GAPDH used to compare the total RNA amount of each treatment group are shown in [Table 2].

[5] = tested on: elastin gene; assay: Elastin gene expression by RT-PCR in fibroblasts; type: cell-based, mouse; settings: NIH3T3 cells, peptide 10, 50, 100 μM, 24 hours, FIG. 1
Method: as §5, §6

[6] = tested on: MMP-1; assay: MMP-1 protein after heat treatment, western blot; type: cell-based, mouse; settings: NIH3T3 cells, peptide 10, 50, 100 μM, 44° C. for 40 minutes, FIG. 7
Method: (§7) First, NIH3T3 cells were seeded in a 6-well plate at a cell density of 5×10^5 cell/well, and then the cells were cultured in DMEM medium containing 10% fetal bovine serum (FBS) for 24 hours. The cultured cells were washed once with serum free DMEM medium, and the peptide of the present invention was mixed in 1 mL of the serum free DMEM medium at each of concentrations of 10, 50, and 100 μM, and dispensed into the cells. A positive control (PC) was treated with 2.5 mM of N-acetylcysteine (NaC) instead of the above peptide.
The cells were cultured in a CO2 incubator at 37° C. for 24 hours. A lid and a lower plate of the 6-well plate were sealed with a paraffin film for heat treatment, the lower plate was immersed in a water bath at 44° C., and culture was performed for 40 minutes. After removing the medium, 1 mL of serum free DMEM medium was added, and culture was performed in a CO2 incubator at 37° C. for 8 hours. Thereafter, the cells were washed twice with PBS, and then a cell lysis buffer was added to obtain a lysate.
A sample was prepared by treating the cells with 5× sample buffer, and then SDS-PAGE was performed using 10% SDS-PAGE gel. The proteins isolated through SDS-PAGE were transferred to a PVDF membrane, and blocking was performed at room temperature for 1 hour using 5% skin milk. […]

[7] = tested on: hyaluronic acid; assay: Hyaluronic acid secretion by HA ELISA in HaCaT keratinocytes; type: cell-based, human; settings: peptide 10, 50, 100 μM, 72 hours, FIG. 2
Method: as §1, §2

[8] = tested on: AQP3; assay: AQP3 mRNA level by RT-PCR in HaCaT keratinocytes; type: cell-based, human; settings: HaCaT cells, peptide 10, 50, 100 μM, 24 hours, FIG. 3
Method: (§8) First, HaCaT cells were seeded in a 6-well plate at a cell density of 3×10^5 cell/well, and then the cells were cultured in DMEM medium containing 10% fetal bovine serum (FBS) for 24 hours. The cultured cells were washed once with serum free DMEM medium, and then the peptide of the present invention was mixed in 1 mL of the serum free DMEM medium at each of concentrations of 10, 50, and 100 μM, and dispensed into the cells. A positive control (PC) was treated with 100 nM of EGF instead of the above peptide. The cells were cultured in a CO2 incubator at 37° C. for 24 hours.
(§9) The cultured cells were washed twice with PBS, and then RNA was extracted from the cells using easy blue (iNtRON, Cat. No.: 17061, Korea). The extracted RNA was subjected to RT reaction using a kit (enzynomics, Cat. No.: RT200, Korea). Thereafter, RT-PCR was performed using a PCR kit (enzynomics, Cat. No.: R581T, Korea). The sequences of the primers of SIRT1 and AQP3 used in RT-PCR and the sequence of the primer of GAPDH used to compare the total RNA amount of each treatment group are shown in [Table 2].

[9] = tested on: MMP-1; assay: MMP-1 expression after UVA irradiation, western blot; type: cell-based, mouse; settings: NIH3T3 cells, peptide 10, 50, 100 μM, 6 J/cm^2 UVA, FIG. 6
Method: as §7
The cells were cultured in a CO2 incubator at 37° C. for 1 hour. The medium of the cultured cells was transferred to a tube (e-tube), 1 ml of PBS was added, and irradiation was performed with 6 J/cm^2 of UVA using a UV irradiator (VILBER LOURMAT, Cat No.: 3102-BSU, France). After removing PBS, 900 μL of the medium transferred to the tube was added, and culture was performed in a CO2 incubator at 37° C. for 6 hours. The medium of the cultured cells was transferred to a tube, the cells were washed twice with PBS, and then a cell lysis buffer was added to lyse the cells. A sample was prepared by treating the cells with 5× sample buffer, and then SDS-PAGE was performed using 10% SDS-PAGE gel. The proteins isolated through SDS-PAGE were transferred to a PVDF membrane. Blocking was performed at room temperature for 1 hour using 5% skim milk. […]

[10] = tested on: intracellular reactive oxygen species in NIH3T3 cells; assay: Intracellular ROS level after UVA irradiation (DCFH-DA, FACS); type: cell-based, mouse; settings: peptide 10, 50, 100 μM, 8 J/cm^2 UVA, 24 hours after irradiation, FIG. 4
Method: as §7, with “medium, and then the peptide” for “medium, and the peptide”, “treated with 7.5 mM of” for “treated with 2.5 mM of”
The cells were cultured in a CO2 incubator at 37° C. for 1 hour. The medium of the cultured cells was transferred to a tube, 1 ml of PBS was added, and irradiation was performed with 8 J/cm^2 of UVA using a UV irradiator (VILBER LOURMAT, Cat No.: 3102-BSU, France). After removing PBS, 900 μL of the medium transferred to the tube was dispensed, and culture was performed in a CO2 incubator at 37° C. for 24 hours. After treatment with 10 μM of dichloro-dihydro-fluorescein diacetate (DCFH-DA), wrapping with a foil was performed, and culture was performed in a CO2 incubator at 37° C. for 30 minutes. The cells were washed twice with PBS, and 500 μL of 1XTE was dispensed to isolate the cells. After centrifugation, the cells were washed with PBS, and a fluorescence value was measured through FACS.

[11] = tested on: fibronectin; assay: Fibronectin mRNA level after UVA irradiation, RT-PCR; type: cell-based, mouse; settings: NIH3T3 cells, peptide 10, 50, 100 μM, 6 J/cm^2 UVA, FIG. 5
Method: as §3, §4

[12] = tested on: SIRT1; assay: SIRT1 mRNA level by RT-PCR in HaCaT keratinocytes; type: cell-based, human; settings: HaCaT cells, peptide 10, 50, 100 μM, 24 hours, FIG. 3
Method: as §8, §9

[13] = tested on: Colla1; assay: Colla1 mRNA level after UVA irradiation, RT-PCR; type: cell-based, mouse; settings: NIH3T3 cells, peptide 10, 50, 100 μM, 6 J/cm^2 UVA, FIG. 5
Method: as §3, §4

KRRRKRK [SEQ ID NO: 1]
activity of MMP-2 increased by UV irradiation [1]: inhibited | protein secretion of collagen [2]: gradually increased as the concentration of the peptide increased | mRNA level of elastin decreased by UV irradiation [3]: increased again | expression of fibronectin gene [4]: gradually increased as the concentration of the peptide increased | expression of elastin gene [5]: gradually increased as the concentration of the peptide increased | amount of secretion of MMP-1 protein whose expression was increased by heat treatment [6]: decreased | protein secretion of hyaluronic acid [7]: gradually increased as the concentration of the peptide increased | mRNA level of AQP3 [8]: increased | expression of MMP-1 increased by UV irradiation [9]: inhibited | intracellular reactive oxygen species level increased by UV irradiation [10]: decreased | mRNA level of fibronectin decreased by UV irradiation [11]: increased again | mRNA level of SIRT1 [12]: increased | mRNA level of Colla1 decreased by UV irradiation [13]: increased again
